Test results taken from patent US20040191208A1, “Cosmetic composition for men's skin care and hair care” (Laboratoires Clarins, a corporation of France, priority 2001, published 2004).

Legend:
[1] = tested on: synthesis of prostaglandins (PGE2); assay: PGE2 synthesis intrinsic to cultured keratinocytes (approach 1), ELISA, evaluating inhibition of cyclooxygenase; format: cell-based, human; settings: aspirin 100 μM
From the text: (§1) In the initial steps of the induction of inflammation, the arachidonic acid stored in the cell membranes is liberated. Once the arachidonic acid has been liberated, it can follow different metabolic pathways. The pathways include: the cyclooxygenase enzyme pathway which leads to the prostaglandins, and the lipoxygenase enzyme pathway which leads to the leukotrienes. The anti-inflammatory activity of purslane extract was, therefore, tested in vitro by evaluating the inhibition of cyclooxygenase. The ELISA-based test employed made it possible to monitor the synthesis of prostaglandins (PGE2) in cultures of human keratinocytes. The cells were used at subconfluence with a cellular multiplication and an active metabolic activity. Two approaches were employed: approach 1: synthesis of the PGE2 intrinsic to the cultured cells; and approach 2: synthesis of the PGE2 induced chemically by PMA (phorbol myristate acetate), an inflammatory agent. Normal human keratinocytes were cultured at 37° C. for 48 hours in a defined medium in the presence of the following products: approach 1: -purslane extract (0.1%, 0.5%, 1% and 3% vol/vol) - aspirin 100 μM (anti-inflammatory, reference compound) approach 2: - purslane extract (0.1%, 0.5%, 1% and 3% vol/vol) - indomethacin 1 μM (anti-inflammatory, reference compound) - stimulation with PMA 1 μg/ml (after 24 hours of incubation). At the end of 48 hours, the different media were collected for quantitative determination of the PGE2.

[2] = tested on: synthesis of prostaglandins (PGE2); assay: PGE2 synthesis induced by PMA in cultured keratinocytes (approach 2), ELISA, evaluating inhibition of cyclooxygenase; format: cell-based, human; settings: indomethacin 1 μM
From the text: as §1, with “PGE2. The protective capacity against the liberation of prostaglandins induced by the pro-inflammatory agent PMA was studied using approach 2.” for “PGE2.”

Compound	inhibition at 100 µM ([1]; Homo sapiens, Keratinocyte, intrinsic PGE2, 48 h, read-out: % inhibition of the liberation of PGE2) [%]	% control ([1]; PGE2 relative to control, intrinsic PGE2, 48 h) [%]	Pg PGE2/mg prot ([1]; normal human keratinocytes, 48 h, intrinsic PGE2) [Pg PGE2/mg prot]	inhibition at 1 µM ([2]; Homo sapiens, Keratinocyte, PMA-induced PGE2, read-out: % inhibition of the liberation of PGE2) [%]	% control ([2]; PGE2 relative to control, PMA-induced) [%]	Pg PGE2/mg prot ([2]; PMA 1 μg/ml stimulation after 24 h, 48 h) [Pg PGE2/mg prot]	% inhibition of the liberation of PGE2 ([2]; PMA-induced PGE2) [%]
CC(=O)Oc1ccccc1C(=O)O [Aspirin, aspirin]	60.3	39.7	1968.2				
COc1ccc2c(c1)c(CC(=O)O)c(C)n2C(=O)c1ccc(Cl)cc1 [Indomethacin, indomethacin]				80	21.0	1683.9	79.0
